Measured values taken from ChEMBL document CHEMBL4715885, “Novel dual LSD1/HDAC6 inhibitors for the treatment of multiple myeloma” (Bioorg Med Chem Lett, 2021).
The source made the active and inactive calls. No cut-off for these calls is given here.

Experiments:
[1] = molecular target: T1, Lysine-specific histone demethylase 1A (Homo sapiens, UniProt O60341); assay: Inhibition of LSD1 (unknown origin)
[2] = molecular target: Histone deacetylase 1 (Homo sapiens) (UniProt Q13547); assay: Inhibition of human HDAC1 at 1uM using RHKKAc as substrate by fluorescence method relative to control
[3] = test system: MM1.S; assay: Antiproliferative activity against human MM1.S cells assessed as reduction in cell viability after 144 hrs; format: functional, cell-based
[4] = molecular target: T2, Protein deacetylase HDAC6 (Homo sapiens, UniProt Q9UBN7); assay: Inhibition of human HDAC6 (unknown origin) using RHKKAc as substrate by fluorescence method; details: read-out: IC50
T2 sequence (Q9UBN7 whole entry): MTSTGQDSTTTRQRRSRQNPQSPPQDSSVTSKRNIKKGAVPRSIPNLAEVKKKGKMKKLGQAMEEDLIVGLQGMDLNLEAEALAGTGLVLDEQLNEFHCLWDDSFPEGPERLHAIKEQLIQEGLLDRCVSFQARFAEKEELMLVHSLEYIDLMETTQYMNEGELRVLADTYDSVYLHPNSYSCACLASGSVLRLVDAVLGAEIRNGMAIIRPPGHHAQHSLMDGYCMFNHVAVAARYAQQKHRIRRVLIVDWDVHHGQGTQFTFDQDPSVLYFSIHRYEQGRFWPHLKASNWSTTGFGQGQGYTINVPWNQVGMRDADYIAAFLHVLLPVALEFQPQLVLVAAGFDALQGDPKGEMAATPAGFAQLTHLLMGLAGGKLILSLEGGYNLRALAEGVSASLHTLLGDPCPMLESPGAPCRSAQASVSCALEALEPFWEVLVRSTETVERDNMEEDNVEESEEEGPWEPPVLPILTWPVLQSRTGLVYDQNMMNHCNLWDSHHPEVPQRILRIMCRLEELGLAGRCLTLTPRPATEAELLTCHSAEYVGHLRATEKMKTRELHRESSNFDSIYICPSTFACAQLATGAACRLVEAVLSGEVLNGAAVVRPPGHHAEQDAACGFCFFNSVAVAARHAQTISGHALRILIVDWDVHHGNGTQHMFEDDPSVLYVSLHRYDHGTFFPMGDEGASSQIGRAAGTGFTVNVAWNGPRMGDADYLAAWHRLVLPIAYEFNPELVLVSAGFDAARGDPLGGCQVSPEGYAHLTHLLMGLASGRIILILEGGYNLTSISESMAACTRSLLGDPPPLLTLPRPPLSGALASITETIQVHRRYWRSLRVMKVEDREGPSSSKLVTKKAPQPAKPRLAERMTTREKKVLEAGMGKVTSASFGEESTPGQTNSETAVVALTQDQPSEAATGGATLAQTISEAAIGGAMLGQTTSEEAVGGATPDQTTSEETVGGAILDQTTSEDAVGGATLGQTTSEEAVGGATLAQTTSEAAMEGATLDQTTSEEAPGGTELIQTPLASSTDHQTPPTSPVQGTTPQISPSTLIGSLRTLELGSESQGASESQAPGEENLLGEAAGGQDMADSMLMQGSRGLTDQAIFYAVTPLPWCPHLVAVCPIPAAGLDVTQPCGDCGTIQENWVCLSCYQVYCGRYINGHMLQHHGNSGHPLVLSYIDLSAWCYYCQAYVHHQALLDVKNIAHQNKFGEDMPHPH

[5] = Stability in mouse liver microsomes assessed as parent compound remaining measured after 30 mins; format: ADME, Microsome; details: liver microsomes, read-out: Stabilty
[6] = Stability in human liver microsomes assessed as parent compound remaining measured after 30 mins; format: ADME, Microsome; details: liver microsomes, read-out: Stabilty
[7] = molecular target: T1, Lysine-specific histone demethylase 1A; assay: Inhibition of LSD1 in human MM1.S cells assessed as modulation of c-Myc mRNA expression at 0.5 uM after 6 to 24 hrs by qRT-PCR analysis; format: cell-based; details: time lower 6.0 hrs, time upper […]
[8] = molecular target: T1, Lysine-specific histone demethylase 1A; assay: Inhibition of LSD1 in human MM1.S cells assessed as modulation of p21 mRNA expression at 0.5 uM after 6 to 24 hrs by qRT-PCR analysis; format: cell-based; details: time lower 6.0 hrs, time upper […]
[9] = molecular target: T3, Protein deacetylase HDAC6 (Homo sapiens) (UniProt Q9UBN7); assay: Inhibition of HDAC6 in human MM1.S cells assessed as modulation of p21 mRNA expression at 0.5 uM after 6 to 24 hrs by qRT-PCR analysis; format: cell-based; details: time lower 6.0 hrs, time upper […]
T3 sequence (whole entry): T2 sequence (Q9UBN7 whole entry)

[10] = molecular target: T3, Protein deacetylase HDAC6 (Homo sapiens); assay: Inhibition of HDAC6 in human MM1.S cells assessed as modulation alpha-tubulin acetylation at 100 to 500 nM after 1 to 3 hrs by Western blot analysis; format: cell-based; details: dose 100-500 nM, time 1-3 hrs
[11] = molecular target: T1, Lysine-specific histone demethylase 1A; assay: Inhibition of LSD1 in human MM1.S cells assessed as modulation alpha-tubulin acetylation at 100 to 500 nM after 1 to 3 hrs by Western blot analysis; format: cell-based; details: dose 100-500 nM, time 1-3 hrs
[12] = molecular target: T3, Protein deacetylase HDAC6 (Homo sapiens); assay: Inhibition of HDAC6 in human MM1.S cells assessed as modulation of c-Myc mRNA expression at 0.5 uM after 6 to 24 hrs by qRT-PCR analysis; format: cell-based; details: time lower 6.0 hrs, time upper […]
[13] = test system: MM1.S; assay: Antitumour activity against human MM1.S cells xenografted in SCID mouse assessed as tumour growth inhibition at 25 mg/kg, po for 12 days relative to control; format: functional; details: 288 h, time 12 day, read-out: TGI
[14] = test system: MM1.S; assay: Antitumour activity against human MM1.S cells xenografted in SCID mouse assessed as tumour growth inhibition at 50 mg/kg, […] for 12 days relative to control; format: functional; details: 288 h, time 12 day, read-out: TGI

Chain of Histone deacetylase 1 (Homo sapiens) (Q13547 whole entry): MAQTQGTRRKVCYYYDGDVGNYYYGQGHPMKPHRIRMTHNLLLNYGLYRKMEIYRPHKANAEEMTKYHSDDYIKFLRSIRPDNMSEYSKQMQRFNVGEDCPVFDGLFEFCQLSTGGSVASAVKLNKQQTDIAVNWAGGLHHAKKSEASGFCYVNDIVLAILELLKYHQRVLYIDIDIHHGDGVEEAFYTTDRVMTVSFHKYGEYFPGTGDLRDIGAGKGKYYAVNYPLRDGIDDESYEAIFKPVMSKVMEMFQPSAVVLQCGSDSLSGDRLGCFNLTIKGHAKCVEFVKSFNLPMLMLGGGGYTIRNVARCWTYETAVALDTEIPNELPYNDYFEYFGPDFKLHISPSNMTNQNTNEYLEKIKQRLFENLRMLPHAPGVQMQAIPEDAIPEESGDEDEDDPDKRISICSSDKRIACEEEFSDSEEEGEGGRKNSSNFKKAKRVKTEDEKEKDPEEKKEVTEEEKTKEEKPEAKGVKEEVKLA

SMILES | IC50 ([1]; read-out: IC50) | inhibition [2] | EC50 [3] | IC50 [4] | remaining at 0.5 h [5] | remaining at 0.5 h [6] | inhibition [7] | inhibition [8] | inhibition [9] | inhibition [10] | inhibition [11] | inhibition [12] | IC50 [1] | inhibition in vivo at 25 mg/kg [13] | inhibition in vivo at 50 mg/kg [14]
O=C(NO)c1csc(CCCN2CCC(CN[C@H]3C[C@@H]3c3ccccc3)CC2)n1 (racemic) | 26 nM | -0.22% | > 10000 nM | > 10000 nM | 95% | 88% | – | – | – | – | – | – | – | – | –
Cc1noc(C)c1-c1ccc([C@H]2C[C@@H]2NCC2CCN(CCCc3ccc(C(=O)NO)cc3)CC2)cc1 (racemic) | 59 nM | 35.4% | 11 nM | 58 nM | 77% | 82% | – | – | – | – | – | – | – | – | –
O=C(NO)c1coc(CCCN2CCC(CN[C@H]3C[C@@H]3c3ccccc3)CC2)n1 (racemic) | 26 nM | 6.85% | > 10000 nM | > 10000 nM | 76% | 78% | – | – | – | – | – | – | – | – | –
O=C(NO)c1cnc(CCCN2CCC(CN[C@H]3C[C@@H]3c3ccccc3)CC2)s1 (racemic) | 22 nM | 10.7% | 63 nM | 517 nM | 87% | 90% | – | – | – | – | – | – | – | – | –
O=C(O)c1ccc(CN2CCC(CN[C@@H]3C[C@H]3c3ccccc3)CC2)cc1 [GSK2879552] | – | – | – | – | – | – | – | – | – | – | – | – | – | 40% | –
O=C(CCCCCCNC(=O)c1cnc(N(c2ccccc2)c2ccccc2)nc1)NO [RICOLINOSTAT] | – | – | 0.85 nM | – | 77% | 93% | – | – | – | – | – | – | Not Active | – | 36%

More lines, main results first:

IC50 ([1]; read-out: IC50) | inhibition [2] | EC50 [3] | IC50 [4] | remaining at 0.5 h [5] | remaining at 0.5 h [6] | inhibition [7] | inhibition [8] | inhibition [9] | inhibition [10] | inhibition [11] | inhibition [12] | IC50 [1] | SMILES | inhibition in vivo at 25 mg/kg [13] | inhibition in vivo at 50 mg/kg [14]
29 nM | 0.7% | 25 nM | 184 nM | < 5% | 84% | – | – | – | – | – | – | – | O=C(NO)c1ccc(CCCN2CC(CN[C@H]3C[C@@H]3c3ccccc3)C2)cc1 (racemic) | – | –
15 nM | 50.7% | 28 nM | 490 nM | 68% | 77% | – | – | – | – | – | – | – | O=C(NO)c1ccc(CCN2CCC(CN[C@H]3C[C@@H]3c3ccccc3)CC2)cc1 (racemic) | – | –
43 nM | 41.6% | 7 nM | 66 nM | 66% | 77% | – | – | – | – | – | – | – | Cn1cc(-c2ccc([C@H]3C[C@@H]3NCC3CCN(CCCc4ccc(C(=O)NO)cc4)CC3)cc2)cn1 (racemic) | – | –
– | 8.36% | > 10000 nM | > 10000 nM | 80% | 63% | – | – | – | – | – | – | – | O=C(O)c1ccc(CCCN2CCC(CN[C@H]3C[C@@H]3c3ccccc3)CC2)cc1 (racemic) | – | –
– | 18.4% | – | – | – | – | Active | Active | Active | Active | Active | Active | – | O=C(NO)c1ccc(CCCN2CCC(CN[C@H]3C[C@@H]3c3ccccc3)CC2)cc1 (racemic) | – | –
